Values quoted from earlier work as cited in publication PMC4331071 (Clinical cancer research : an official journal of the …, 2013).

Test system: GRP78

efficacy among GRP78 binding peptides: highest efficacy
Sequence: WIFPWIQL
